Laboratory results taken from ChEMBL document CHEMBL1147900, “Immuno-stimulating properties of diosgenyl saponins isolated from Paris polyphylla” (Bioorg Med Chem Lett, 2007).
Active and inactive are the calls of the source. The rule behind the calls is not given here.

Key:
Format in all cases: functional, cell-based
RAW [1] = test: Effect on phagocytic activity in mouse RAW 264.7 cells after 24 hrs
RAW [2] = test: Induction of respiratory burst in mouse RAW 264.7 cells at 10 nM assessed as superoxide anion production after 2 hrs by NBT test
RAW [3] = test: Effect on NO production in mouse RAW 264.7 cells at 100 nM
RAW [4] = test: Effect on phagocytic activity in mouse RAW 264.7 cells at 10 uM after 24 hrs

SMILES | Activity (RAW [1]) | Activity (RAW [2]) | Activity (RAW [3]) | Activity (RAW [4])
C[C@@H]1CC[C@@]2(OC1)O[C@H]1C[C@H]3[C@@H]4CC=C5C[C@@H](O)CC[C@]5(C)[C@H]4CC[C@]3(C)[C@H]1[C@@H]2C | Active | inactive | inactive | –
C[C@H]1CC[C@@]2(OC1)O[C@H]1C[C@H]3[C@@H]4CC=C5C[C@@H](O[C@@H]6O[C@@H](CO)[C@H](O[C@H]7O[C@H](C)[C@@H](O[C@H]8O[C@H](C)[C@@H](O)[C@H](O)[C@@H]8O)[C@H](O)[C@@H]7O)[C@@H](O)[C@@H]6O[C@@H]6O[C@@H](C)[C@@H](O)[C@H](O)[C@@H]6O)CC[C@]5(C)[C@H]4CC[C@]3(C)[C@H]1[C@@H]2C | Active | Active | Active | Active
